Measurements taken from US8569344B2, “N-piperidinyl acetamide derivatives as calcium channel blockers” (Zalicus Pharmaceuticals Ltd., priority 2008, dated 2013).
Like-named read-outs stand apart in the source and are kept apart here.

What was measured:
Format in all cases: cell-based
[1] = biological target: T1, human α1G T-type channels (Homo sapiens, UniProt O43497); assay: T-type calcium channel block, whole cell patch clamp in HEK cells (α1G); conditions: HEK cells, patch clamp, mainly non-inactivated protocol; values above 10 μM shown as 10 μM, below 0.30 μM shown as 0.30 μM; read-out: T-type Calcium Channel Block α1G IC50
T1 construct: expressed in transfected cells; host or cells: HEK 293

[2] = biological target: T2, human α1H T-type channels (Homo sapiens, UniProt O95180); assay: T-type calcium channel block, whole cell patch clamp in HEK cells (α1H); conditions: HEK cells, patch clamp, mainly non-inactivated protocol; values above 10 μM shown as 10 μM; read-out: T-type Calcium Channel Block α1H IC50
T2 construct: expressed in transfected cells; host or cells: HEK 293

hERG K+ channel = hERG K+ channel (Homo sapiens, UniProt Q12809); assay: hERG K+ Channel Block

T2 sequence (O95180 whole entry): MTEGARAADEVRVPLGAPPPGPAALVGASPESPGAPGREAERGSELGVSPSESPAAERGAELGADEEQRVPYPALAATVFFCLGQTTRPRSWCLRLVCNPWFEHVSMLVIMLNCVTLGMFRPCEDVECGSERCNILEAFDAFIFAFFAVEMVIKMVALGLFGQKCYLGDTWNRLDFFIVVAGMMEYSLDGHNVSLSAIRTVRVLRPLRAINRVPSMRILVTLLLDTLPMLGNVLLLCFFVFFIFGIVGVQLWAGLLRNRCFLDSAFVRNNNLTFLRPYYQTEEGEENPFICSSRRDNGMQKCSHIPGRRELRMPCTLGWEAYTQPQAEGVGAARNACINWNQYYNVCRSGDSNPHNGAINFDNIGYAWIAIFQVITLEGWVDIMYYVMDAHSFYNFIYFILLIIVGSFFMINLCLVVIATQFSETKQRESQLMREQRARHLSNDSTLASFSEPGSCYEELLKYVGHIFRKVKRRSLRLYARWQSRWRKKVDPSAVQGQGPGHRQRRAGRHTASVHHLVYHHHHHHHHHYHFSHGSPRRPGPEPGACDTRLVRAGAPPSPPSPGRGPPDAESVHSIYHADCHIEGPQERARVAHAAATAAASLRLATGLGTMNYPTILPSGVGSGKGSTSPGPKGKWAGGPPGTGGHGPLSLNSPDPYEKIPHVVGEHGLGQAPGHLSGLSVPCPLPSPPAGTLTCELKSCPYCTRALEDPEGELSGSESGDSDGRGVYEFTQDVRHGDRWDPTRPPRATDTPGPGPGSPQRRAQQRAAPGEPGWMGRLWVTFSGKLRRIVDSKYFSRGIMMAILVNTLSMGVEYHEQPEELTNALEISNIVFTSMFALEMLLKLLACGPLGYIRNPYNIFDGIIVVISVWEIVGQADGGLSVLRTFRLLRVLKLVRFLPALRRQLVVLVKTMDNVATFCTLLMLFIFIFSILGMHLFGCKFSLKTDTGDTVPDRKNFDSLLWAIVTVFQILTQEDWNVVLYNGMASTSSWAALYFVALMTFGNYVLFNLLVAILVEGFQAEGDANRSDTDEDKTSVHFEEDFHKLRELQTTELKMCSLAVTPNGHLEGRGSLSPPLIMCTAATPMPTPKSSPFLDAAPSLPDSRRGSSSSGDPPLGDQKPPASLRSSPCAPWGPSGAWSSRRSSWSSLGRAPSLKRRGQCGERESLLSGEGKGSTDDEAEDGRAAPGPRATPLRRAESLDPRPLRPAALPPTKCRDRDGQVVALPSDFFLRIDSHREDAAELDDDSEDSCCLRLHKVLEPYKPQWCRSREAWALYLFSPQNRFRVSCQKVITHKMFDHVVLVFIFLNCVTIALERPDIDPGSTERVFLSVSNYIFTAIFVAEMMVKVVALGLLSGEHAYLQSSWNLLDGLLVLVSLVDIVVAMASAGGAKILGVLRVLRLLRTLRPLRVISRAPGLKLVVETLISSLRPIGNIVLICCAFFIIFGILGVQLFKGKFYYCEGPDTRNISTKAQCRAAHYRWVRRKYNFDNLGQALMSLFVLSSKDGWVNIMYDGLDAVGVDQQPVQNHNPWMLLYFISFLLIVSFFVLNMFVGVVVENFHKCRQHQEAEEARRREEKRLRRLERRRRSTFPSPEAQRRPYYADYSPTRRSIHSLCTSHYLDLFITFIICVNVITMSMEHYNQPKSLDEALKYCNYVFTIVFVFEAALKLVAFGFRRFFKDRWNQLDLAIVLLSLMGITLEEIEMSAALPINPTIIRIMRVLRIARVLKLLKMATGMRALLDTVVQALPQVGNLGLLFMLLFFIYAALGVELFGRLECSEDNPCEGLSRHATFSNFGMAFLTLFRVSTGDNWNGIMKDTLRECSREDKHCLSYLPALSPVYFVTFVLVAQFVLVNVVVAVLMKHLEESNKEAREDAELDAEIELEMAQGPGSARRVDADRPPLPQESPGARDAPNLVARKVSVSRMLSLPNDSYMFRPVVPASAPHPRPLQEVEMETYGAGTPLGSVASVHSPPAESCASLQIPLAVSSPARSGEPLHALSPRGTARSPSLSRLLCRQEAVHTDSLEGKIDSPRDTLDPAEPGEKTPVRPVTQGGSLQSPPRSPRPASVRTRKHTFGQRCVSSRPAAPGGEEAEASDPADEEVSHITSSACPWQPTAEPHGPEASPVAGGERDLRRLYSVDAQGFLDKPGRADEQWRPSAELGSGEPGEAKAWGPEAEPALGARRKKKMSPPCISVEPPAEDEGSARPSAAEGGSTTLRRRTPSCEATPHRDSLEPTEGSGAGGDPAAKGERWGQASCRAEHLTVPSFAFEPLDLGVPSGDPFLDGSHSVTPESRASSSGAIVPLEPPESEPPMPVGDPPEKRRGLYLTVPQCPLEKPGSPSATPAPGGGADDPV
T1 sequence (O43497 whole entry): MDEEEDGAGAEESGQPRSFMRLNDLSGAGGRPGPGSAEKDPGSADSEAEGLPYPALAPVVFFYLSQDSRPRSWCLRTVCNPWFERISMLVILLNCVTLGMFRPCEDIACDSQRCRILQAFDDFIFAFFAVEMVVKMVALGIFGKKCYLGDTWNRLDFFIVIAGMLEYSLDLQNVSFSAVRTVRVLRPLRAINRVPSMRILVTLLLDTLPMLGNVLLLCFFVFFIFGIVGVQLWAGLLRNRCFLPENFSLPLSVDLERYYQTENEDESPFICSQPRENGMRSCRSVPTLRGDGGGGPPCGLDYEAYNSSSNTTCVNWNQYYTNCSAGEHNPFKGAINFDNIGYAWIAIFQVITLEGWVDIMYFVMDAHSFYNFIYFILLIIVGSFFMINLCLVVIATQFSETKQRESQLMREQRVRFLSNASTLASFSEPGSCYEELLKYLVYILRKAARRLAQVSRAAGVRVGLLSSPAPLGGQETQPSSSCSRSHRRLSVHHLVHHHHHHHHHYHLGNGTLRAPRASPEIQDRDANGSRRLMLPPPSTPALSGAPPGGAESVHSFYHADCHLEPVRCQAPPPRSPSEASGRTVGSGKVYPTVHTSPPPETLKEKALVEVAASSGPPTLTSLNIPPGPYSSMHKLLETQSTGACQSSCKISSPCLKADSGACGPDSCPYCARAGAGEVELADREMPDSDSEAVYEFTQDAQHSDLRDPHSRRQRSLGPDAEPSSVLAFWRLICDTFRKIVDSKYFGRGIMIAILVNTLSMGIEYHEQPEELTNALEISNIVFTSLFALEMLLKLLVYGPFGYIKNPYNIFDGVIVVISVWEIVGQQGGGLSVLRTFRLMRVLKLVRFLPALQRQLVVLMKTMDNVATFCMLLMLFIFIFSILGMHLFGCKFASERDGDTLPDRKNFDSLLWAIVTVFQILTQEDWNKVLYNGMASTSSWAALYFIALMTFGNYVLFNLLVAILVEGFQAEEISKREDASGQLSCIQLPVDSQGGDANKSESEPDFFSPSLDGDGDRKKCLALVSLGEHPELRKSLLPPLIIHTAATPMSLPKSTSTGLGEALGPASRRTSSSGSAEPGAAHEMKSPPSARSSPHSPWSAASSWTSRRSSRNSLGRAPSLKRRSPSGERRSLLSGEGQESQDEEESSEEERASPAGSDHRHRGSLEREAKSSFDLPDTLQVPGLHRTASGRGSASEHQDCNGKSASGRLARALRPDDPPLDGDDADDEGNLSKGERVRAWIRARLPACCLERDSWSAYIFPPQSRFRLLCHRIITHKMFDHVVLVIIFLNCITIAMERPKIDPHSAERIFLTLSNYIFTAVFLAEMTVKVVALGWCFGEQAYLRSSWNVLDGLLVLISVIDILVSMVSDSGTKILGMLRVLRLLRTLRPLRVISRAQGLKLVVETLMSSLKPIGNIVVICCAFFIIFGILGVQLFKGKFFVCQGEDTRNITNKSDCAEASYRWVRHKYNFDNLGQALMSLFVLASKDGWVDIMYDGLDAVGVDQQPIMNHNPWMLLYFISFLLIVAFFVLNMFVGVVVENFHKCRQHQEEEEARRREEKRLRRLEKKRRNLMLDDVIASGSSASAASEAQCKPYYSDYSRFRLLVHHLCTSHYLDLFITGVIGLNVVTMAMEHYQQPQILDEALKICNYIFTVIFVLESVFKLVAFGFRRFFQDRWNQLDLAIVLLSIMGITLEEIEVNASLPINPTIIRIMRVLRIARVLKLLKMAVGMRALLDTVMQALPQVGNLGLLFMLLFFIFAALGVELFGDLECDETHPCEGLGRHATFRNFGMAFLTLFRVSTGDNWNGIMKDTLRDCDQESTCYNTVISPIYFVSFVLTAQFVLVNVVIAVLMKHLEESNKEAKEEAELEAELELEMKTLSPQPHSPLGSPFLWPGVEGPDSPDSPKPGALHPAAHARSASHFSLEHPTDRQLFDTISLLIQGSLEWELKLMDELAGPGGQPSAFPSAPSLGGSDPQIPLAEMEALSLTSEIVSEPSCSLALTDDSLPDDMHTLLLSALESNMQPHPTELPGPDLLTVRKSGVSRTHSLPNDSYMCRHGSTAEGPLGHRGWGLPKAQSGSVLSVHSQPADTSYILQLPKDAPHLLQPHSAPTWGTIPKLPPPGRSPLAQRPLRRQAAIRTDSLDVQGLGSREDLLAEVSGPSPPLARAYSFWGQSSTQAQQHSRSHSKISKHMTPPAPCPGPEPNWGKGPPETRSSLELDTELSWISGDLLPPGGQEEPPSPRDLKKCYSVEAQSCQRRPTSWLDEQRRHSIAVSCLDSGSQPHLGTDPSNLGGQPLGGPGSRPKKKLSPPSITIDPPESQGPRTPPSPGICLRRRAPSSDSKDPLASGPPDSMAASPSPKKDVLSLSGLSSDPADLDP

Structure (SMILES)	IC50 [1]	IC50 [2]	IC50 (hERG K+ channel)	IC50 (hERG K+ channel; human)
O=C(CC1CCN(CC(O)C(F)(F)F)CC1)Nc1cc(C(F)(F)F)cc(C(F)(F)F)c1 (centres unmarked) [Compound 178, N-(3,5-bis(trifluoromethyl)phenyl)-2-(1-(3,3,3-trifluoro-2-hydroxypropyl)piperidin-4-yl)acetamide]	720 nM	5100 nM	1.6 µM	
CC(C)(C)C(=O)NCCN1CCC(CC(=O)Nc2cc(C(F)(F)F)cc(C(F)(F)F)c2)CC1 [Compound 334, N-(2-(4-(2-(3,5-bis(trifluoromethyl)phenylamino)-2-oxoethyl)piperidin-1-yl)ethyl)pivalamide]	< 300 nM	220 nM	0.92 µM	
O=C(NCC1CCN(CCNC(=O)C2(C(F)(F)F)CC2)CC1)c1cc(F)cc(C(F)(F)F)c1 [Compound 343, 3-fluoro-5-(trifluoromethyl)-N-((1-(2-(1-(trifluoromethyl)cyclopropanecarbox-amido)ethyl)piperidin-4-yl)methyl) benzamide]	330 nM	130 nM	6.2 µM	
CC(C)NC(=O)CN1CCC(CNC(=O)c2cc(C(F)(F)F)cc(C(F)(F)F)c2)CC1 [Compound 344, N-((1-(2-(isopropylamino)-2-oxoethyl)piperidin-4-yl)methyl)-3,5-bis(trifluoromethyl)benzamide]	< 300 nM	120 nM	9.1 µM	
Cc1cc(C)cc(C(=O)NCC2CCN(CC(=O)NC(C)(C)C)CC2)c1 [Compound 362, N-((1-(2-(tert-butylamino)-2-oxoethyl)piperidin-4-yl)methyl)-3,5-dimethylbenzamide]	< 300 nM	170 nM		≥ 8.3 µM
Cc1cc(F)cc(C(=O)NCC2CCN(CC(=O)NC(C)(C)C)CC2)c1 [Compound 363, N-((1-(2-(tert-buylamino)-2-oxoethyl)piperidin-4-yl)methyl)-3-fluoro-5-methylbenzamide]	< 300 nM	200 nM		≥ 8.3 µM
COc1cc(F)cc(C(=O)NCC2CCN(CC(=O)NC(C)(C)C)CC2)c1 [Compound 366, N-((1-(2-(tert-butylamino)-2-oxoethyl)piperidin-4-yl)methyl)-3-fluoro-5-methoybenzamide]	< 300 nM	120 nM		≥ 8.3 µM
CC(C)(C)NC(=O)CN1CCC(CNC(=O)c2cccc(C(F)(F)F)c2)CC1 [Compound 371, N-((1-(2-(tert-butylamino)-2-oxoethyl)piperidin-4-yl)methyl)-3-(trifluoromethyl)benzamide]	< 300 nM	140 nM	14.7 µM	
CC(C)(C)NC(=O)CN1CCC(CNC(=O)c2cccc(OC(F)(F)F)c2)CC1 [Compound 375, N-((1-(2-(tert-butylamino)-2-oxoethyl)piperidin-4-yl)methyl)-3-(trifluoromethoxy)benzamide]	< 300 nM	70 nM	8.8 µM	
CC(C)(C)NC(=O)CN1CCC(CNC(=O)c2cc(F)cc(C(F)(F)F)c2)CC1 [Compound 376, N-((1-(2-(tert-butylamino)-2-oxoethyl)piperidin-4-yl)methyl)-3-fluoro-5-(trifluoromethyl)benzamide]	< 300 nM	160 nM	11 µM	
COc1cc(OC)cc(C(=O)NCC2CCN(CC(=O)NC(C)(C)C(F)(F)F)CC2)c1 [Compound 457, 3,5-dimethoxy-N-((1-(2-oxo-2-(1,1,1-trifluoro-2-methylpropan-2-ylamino)ethyl)piperidin-4-yl)methyl)benzamide]	< 300 nM	50 nM		≥ 16.6 µM
O=C(NCC1CCN(CC(=O)N2CCC[C@H]2C(F)(F)F)CC1)c1cccc(Br)c1 [Compound 468, (S)-3-bromo-N-((1-(2-oxo-2-(2-(trifluoromethyl)pyrrolidin-1-yl)ethyl)piperidin-4-yl)methyl)benzamide]	< 300 nM	90 nM	4.2 µM	
O=C(NCC1CCN(CC(=O)N2CCC[C@H]2C(F)(F)F)CC1)c1cccc(Cl)c1 [Compound 469, (S)-3-chloro-N-((1-(2-oxo-2-(2-(trifluoromethyl)pyrrolidin-1-yl)ethyl)piperidin-4-yl)methyl)benzamide]	< 300 nM	120 nM	9.5 µM	
O=C(NCC1CCN(CC(=O)N2CCC[C@H]2C(F)(F)F)CC1)c1cc(F)cc(Cl)c1 [Compound 470, (S)-3-chloro-5-fluoro-N-((1-(2-oxo-2-(2-(trifluoromethyl)pyrrolidin-1-yl)ethyl)piperidin-4-yl)methyl)benzamide]	< 300 nM	70 nM	2.6 µM	
O=C(NCC1CCN(CC(=O)N2CCC[C@H]2C(F)(F)F)CC1)c1cccc(OC(F)(F)F)c1 [Compound 471, (S)-N-((1-(2-oxo-2-(2-(trifluoromethyl)pyrrolidin-1-yl)ethyl)piperidin-4-yl)methyl)-3-(trifluoromethoxy)benzamide]	< 300 nM	60 nM	2.3 µM	
O=C(NCC1CCN(CCNC(=O)C2(C(F)(F)F)CC2)CC1)c1cc(F)cc(Cl)c1 [Compound 472, 3-chloro-5-fluoro-N-((1-(2-(1-(trifluoromethyl)cyclopropanecarbox-amido)ethyl)piperidin-4-yl)methyl) benzamide]	< 300 nM	40 nM	2.8 µM	
O=C(NCC1CCN(CCNC(=O)C2(C(F)(F)F)CC2)CC1)c1cccc(C(F)(F)F)c1 [Compound 473, 3-(trifluoromethyl)-N-((1-(2-(1-(trifluoromethyl)cyclopropanecarbox-amido)ethyl)piperidin-4-yl)methyl) benzamide]	680 nM	130 nM	2.2 µM	
COc1cc(F)cc(C(=O)NCC2CCN(CC(=O)NC3(C)CCC3)CC2)c1 [Compound 477, 3-fluoro-5-methoxy-N-((1-(2-(1-methylcyclobutylamino)-2-oxoethyl)piperidin-4-yl)methyl) benzamide]	< 300 nM	60 nM		≥ 16.6 µM
CN(C(=O)CN1CCC(CNC(=O)c2cc(F)cc(C(F)(F)F)c2)CC1)C1(C)CCC1 [Compound 594, 3-fluoro-N-((1-(2-(methyl(1-methylcyclobutyl)amino)-2-oxoethyl)piperidin-4-yl)methyl)-5-(trifluoromethyl)benzamide]		160 nM		≥ 17 µM

Second part, led by results:

IC50 [1]	IC50 [2]	Structure (SMILES)	IC50 (hERG K+ channel)	IC50 (hERG K+ channel; human)
< 300 nM	70 nM	CC(C)(C)C(O)CN1CCC(CC(=O)Nc2cc(C(F)(F)F)cc(C(F)(F)F)c2)CC1 (centres unmarked) [Compound 153, N-(3,5-bis(trifluoromethyl)phenyl)-2-(1-(2-hydroxy-3,3-dimethylbutyl)piperidin-4-yl)acetamide]	2.8 µM	
310 nM	3360 nM	NC1(CN2CCC(CC(=O)Nc3cc(C(F)(F)F)cc(C(F)(F)F)c3)CC2)CCCC1 [Compound 159, 2-(1-((1-aminocyclopentyl)methyl)piperidin-4-yl)-N-(3,5-bis(trifluoromethyl)phenyl)acetamide]	1.3 µM	
20 nM	500 nM	CS(=O)(=O)NC1(CN2CCC(CC(=O)Nc3cc(C(F)(F)F)cc(C(F)(F)F)c3)CC2)CCCC1 [Compound 160, N-(3,5-bis(trifluoromethyl)phenyl)-2-(1-((1-(methylsulfonamido)cyclopentyl)methyl)piperidin-4-yl)acetamide]	0.19 µM	
2 nM	80 nM	O=C(CC1CCN(CC2(NS(=O)(=O)C3CC3)CCCC2)CC1)Nc1cc(C(F)(F)F)cc(C(F)(F)F)c1 [Compound 179, N-(3,5-bis(trifluoromethyl)phenyl)-2-(1-((1-(cyclopropanesulfonamido)cyclopentyl)methyl)piperidin-4-yl) acetamide]	0.33 µM	
< 300 nM	90 nM	CC(C)(C)NC(=O)CN1CCC(CNC(=O)c2cccc(Br)c2)CC1 [Compound 374, 3-bromo-N-((1-(2-(tert-butylamino)-2-oxoethyl)piperidin-4-yl)methyl) benzamide]	7.8 µM	
< 300 nM	30 nM	CC(C)(NC(=O)CN1CCC(CNC(=O)c2cccc(Cl)c2)CC1)C(F)(F)F [Compound 460, 3-chloro-N-((1-(2-oxo-2-(1,1,1-trifluoro-2-methylpropan-2-ylamino)ethyl)piperidin-4-yl)methyl)benzamide]	6.9 µM	
< 300 nM	20 nM	CC(C)(NC(=O)CN1CCC(CNC(=O)c2cc(F)cc(Cl)c2)CC1)C(F)(F)F [Compound 461, 3-chloro-5-fluoro-N-((1-(2-oxo-2-(1,1,1-trifluoro-2-methylpropan-2-ylamino)ethyl)piperidin-4-yl)methyl)benzamide]	7.4 µM	
< 300 nM	30 nM	CC(C)(NC(=O)CN1CCC(CNC(=O)c2cccc(OC(F)(F)F)c2)CC1)C(F)(F)F [Compound 462, N-((1-(2-oxo-2-(1,1,1-trifluoro-2-methylpropan-2-ylamino)ethyl)piperidin-4-yl)methyl)-3-(trifluoromethoxy) benzamide]	4.1 µM	
< 300 nM	140 nM	Cc1cc(F)cc(C(=O)NCC2CCN(CC(=O)NC3(C)CCC3)CC2)c1 [Compound 476, 3-fluoro-5-methyl-N-((1-(2-(1-mtrhylcyclobutylamino)-2-oxoethyl)piperidin-4-yl)methyl) benzamide]		≥ 16.6 µM
< 300 nM	110 nM	COc1cc(OC)cc(C(=O)NCC2CCN(CC(=O)NC3(C)CCC3)CC2)c1 [Compound 478, 3,5-dimethoxy-N-((1-(2-(1-methylcyclobutylamino)-2-oxoethyl)piperidin-4-yl)methyl) benzamide]		≥ 16.6 µM
